{
  "source": "patent US6046228A",
  "about": "“Anti-viral pharmaceutical compositions containing saturated 1,2-dithiaheterocyclic compounds and uses thereof” (priority 1999, dated 2000)",
  "key": {"[1]": {"test_system": "HIV-1 BAKI(SI)", "experiment": "antiviral assay in PBL (p24), clinical isolate BAKI", "format": "cell-based", "details": "Human immunodeficiency virus 1, cell-free p24", "description": "(§1) Initial anti-HIV screening was performed with CEM-SS cells and HIV-1RFusing the XTT cytoprotection assay as previously described (Weislow et al., J. National Cancer Inst. 81: 577-586, (1989)). HIV-1 isolates included common laboratory stains (RF, IIIB and MN), as well as a panel of HIV-1 clinical isolates (Cushman et al., J. Med. Chem. 37: 3040-3050, (1994)). The pyridone-resistant HIV-1A17 isolate (Nunberg et al., J. Virol., 65: 4887-4892 (1991)) was obtained from Emilio Emini at Merck Sharpe and Dohme Laboratories. Phytohemagglutinin-stimulated human peripheral blood lymphocytes (PBLs) and fresh monocyte-macrophage (Mono/MF) cultures were prepared and utilized in antiviral assays as previously described (Rice et al., Proc. Nat'l. Academy Science, USA 90: 9721-9724, (1993)); (Cushman et al., J. Med. Chem. 37: 3040-3050, (1994)). EC50 values for these cultures indicate the drug concentration that provided a 50% reduction in viral p24 production. […] The compounds can be synthesized according to the teachings of Singh et al., Sulfur Letters 8: 107-114, (1988). The 4,5-cis-dihydroxy(1,1-dioxy-1,2,-dithiohexane) compound (NSC 624151) has been abbreviated as 624151 for convenience. […]"}, "[2]": {"molecular_target": "T1, HIV-1 p66-p51 RT (Human immunodeficiency virus type 1 group M subtype B, UniProt P04585)", "T1 construct": "the purified HIV-1 p66-p51 RT enzyme", "experiment": "reverse transcriptase activity assay", "format": "biochemical", "details": "for inhibition of HIV-1 RT: in words", "description": "The effects of 624151 on the in vitro activity of purified RT was determined by measurement of incorporation of [^3 H]TTP onto the poly(rA):oligo(dT)(rAdT) or poly(rC):oligo(dG)(rCdG) homopolymer template/primer systems. Samples (5 μL) were blotted onto DE81 paper, washed with 5% dibasic sodium phosphate as previously described (Buckheit et al., Antiviral Res. 21:247, (1993)), and then quantitated on a Packard Matrix 9600 dual beam counter. 3'-Azido-3'-deoxythymidine-5 '-triphosphateand UC38 (NSC 629243) served as positive controls for inhibition of RT. HIV-1 protease activity was quantitated by a reversed phase HPLC assay utilizing the […]Amide substrate (Multiple Peptide Systems, San Diego, Calif.) as previously described in Rice et al. (Proc. Nat'l. Academy of Science USA 9: 9721-9724, (1993))."}, "[3]": {"molecular_target": "T2, HIV-1 protease (Human immunodeficiency virus type 1 group M subtype B, UniProt P04585)", "T2 construct": "the purified HIV-1 protease and integrase enzymes", "experiment": "HIV-1 protease activity, reversed phase HPLC assay", "format": "biochemical"}, "[4]": {"test_system": "U1 cells", "experiment": "U1 cell viability (XTT) and cell number", "format": "cell-based", "details": "TNF-α stimulated U1 cells, 48 hours, FIG. 3(A)", "description": "U1 cells latently infected with two copies of HIV-1 proviral DNA per cell (Clous et al., J. Immunol. 142: 431-438, (1989)) were treated with 5 ng/ml tumor necrosis factor-α(TNF-α) for 24 hours to stimulate production of HIV-1 virions, after which various concentrations of 624151 were added to the cultures and incubated for an additional 48 hours. Cultures were analyzed for cell viability by the XTT reduction assay and cells were counted and scored for viability by trypan blue exclusion. Cells pellets were lysed (0.5% Triton X-100, 300 mM NaCl, 50 mM Tris-HCl, pH 7.6, 10 μg/ml each of Leupeptin and aprotinin (Boehringer Mannheim), 1.8 mg/ml iodoacetamide (Sigma Chemical Co., St. Louis, Mo.) and 1.0 mg/ml the protease inhibitor Pefabloc SC (Boehringer Mannheim at 4° C. for 15 min. and then quantitated for viral p24 content by ELISA. Cell-free supernatant samples were collected and analyzed for virus content by p24 ELISA, and infectivity in cultures of 174xCEM cells. Briefly, serial 1/2 dilutions of the supernatant were placed with 5×10^3 174xCEM cells and cultured for 7 days, cell supernatants were analyzed for viral p24 content, and the number of infectious units/ml calculated. In addition, cell free supernatants were centrifuged at 17,000×g for 1 hour at 4° C. to collect virion pellets. […]"}, "[5]": {"test_system": "HIV-1 SK1", "experiment": "XTT cytopathicity assay, SK1", "format": "cell-based", "details": "Human immunodeficiency virus 1, CEM-SS", "description": "as §1"}},
  "data": [
    {"smiles": "O=S1(=O)C[C@H](O)[C@H](O)CS1", "note": "(relative stereo) [NSC 624151, cis-1,1-dioxo[1,2]dithiane-4,5-diol]", "values": [
      {"measurement": "EC50", "setting": "[1]", "result": 19, "unit": "µM"},
      {"measurement": "inhibition of HIV-1 RT", "setting": "[2]; rAdT template/primer", "result": "not inhibited"},
      {"measurement": "IC50", "setting": "[2]; rAdT, read-out: RT Activity rAdT ID50", "result": "> 100", "unit": "µM"},
      {"measurement": "inhibition of HIV-1 RT", "setting": "[2]; rCdG template/primer", "result": "not inhibited"},
      {"measurement": "inhibition of HIV-1 protease", "setting": "[3]; in words", "result": "not inhibited"},
      {"measurement": "IC50", "setting": "[3]; read-out: Protease Activity ID50", "result": "> 100", "unit": "µM"},
      {"measurement": "cell viability (XTT) or cell number", "setting": "[4]", "result": "did not significantly reduce cell viability (XTT) or cell number"},
      {"measurement": "EC50", "setting": "[5]", "result": 22.7, "unit": "µM"}
    ]}
  ]
}
